Consider one compound from US20250231178A1, “A BIOMARKER FOR DETERMINING ALZHEIMER'S DISEASE” (UNIVERSITY OF EASTERN FINLAND, priority 2022, published 2025).

The target of experiment [1] is T1, PIEZO1 receptor in red blood cells (RBCs) (Homo sapiens, UniProt Q92508).
T1 construct: indicating the Ca^2+ influx into the red blood cells (RBCs) through PIEZO1 ion channels; endogenous in cells; host or cells: Red blood cells from venous blood of healthy, MCI and AD donors
The experiment in a line: Yoda1-induced Ca flux in red blood cells, Fluo4 am, flow cytometry (FACS) time-lapse. It is filed as cell-based. The following applies: for normalized MFI levels (Fluo4 am median fluorescence intensity normalized on baseline): 10 μM Yoda1, 60 s of recording. The protocol:
The venous blood samples from healthy subjects, patients with mild cognitive impairment (MCI), and patients with Alzheimer's disease (AD) were collected into BD Vacutainer® blood collection tubes containing the K3-EDTA anti-coagulant. 150 μl of whole blood was taken for further processing, washed two times with 10 ml of phosphate-buffered saline (PBS) (5 mins, 300 g, RT (=about 20-25° C.) to remove plasma. After the second wash, the supernatant was removed and 50 μl of red blood cells (RBCs) were transferred to clean falcon tube and resuspended in 200 μl PBS (250 μl total volume of cell suspension). 250 μl of Fluo4 am AM (Thermo Fisher Scientific) fluorescent dye was added and cells were incubated for 30 minutes at 37° C. in dark.
After the incubation, cell suspension was washed twice with 5 ml of PBS, followed by one wash with HBSS (5 mins, 300 g, RT). Supernatant was carefully removed with pipette and 50 μl pellet was resuspended in 450 μl of Hank's Balanced Salt Solution (HBSS) to form 10% cell suspension. 10 μl of 10% cell suspension was transferred to 390 μl of RPMI/FBS (10:1) (400 μl final volume). This cell suspension was further used for flow cytometry time-lapse assessment using CytoFLEX S flow cytometer (Beckman Coulter, USA).
At the start of the recording, at t=0 seconds, baseline fluorescence was recorded for 20 seconds. At t=20 seconds, Yoda1 in DMSO was applied to the sample at the final concentration of 5 or 10 μM. At t=4 minutes and 20 seconds, ionomycin, serving as the positive control, was applied at the final concentration 10 μM. Recording was finished at t=5 minutes 30 seconds.
FIGS. 3A-3C plot the mean values of Ca^2+ signal for each group with 10 μM Yoda1 spanning from BL (t=0 seconds) to t=4 minutes, while the FIGS. 3D-3F show the measurements of individual samples at t=60 seconds.
All flow cytometric data were analyzed using CytExpert Software v 2.4 (Beckman Coulter Inc., CA, USA). Yoda1-induced Ca flux was measured by using Fluo4 am median fluorescence intensity (MFI) of single cells after Yoda1 application at different time points—baseline (before application of Yoda1 at 10 μM concentrations), and every 20 sec of the recording.
Data were analyzed using GraphPad Prism Software (CA, USA). Statistical analysis was performed using Mann-Whitney test, two-tailed. The data are presented as mean±SEM.

The target in experiment [2] is T1, PIEZO1 receptor in red blood cells (RBCs). The experiment in a line: Yoda1-induced Ca flux in red blood cells, Fluo4 am, microtiter plate format and fluorometer. The class given is cell-based. The following applies: n=4, mean±SEM, plate reader. The protocol:
Mann-Whitney test, two-tailed, *p<0.05. […] Signals recorded without addition of Fluo4, with and without Yoda1, were subtracted from their Fluo4 loaded counterparts to give the final read-outs used in normalising the results.
300 μL of blood from the healthy persons and AD patients was collected into the blood sampling tubes with sodium citrate to prevent coagulation. The samples were washed twice with PBS buffer (Ca^2+ and Mg^2+ free) by centrifugation at 300 G for 5 minutes. […] of the red blood cell (RBC) pellet was divided into […], 50 μL for fluorescent staining and 50 μL for the negative control. […] The samples were distributed into the microtitration plate (96-wells, 180 μL per well), after which the ground level of fluorescence (485 nm/535 nm, 1.0 s, Victor Wallac) was measured immediately. 20 μL of DMSO (for vehicle control) or 20 μL of 5 μM Yoda1 (for PIEZO1 activity) was added into the wells, and the fluorescence was measured immediately. The fluorescence signal of the sample having no Fluo4 am was subtracted from the fluorescence signals of the vehicle and Yoda1 samples treated with Fluo4 am. The increase in fluorescence upon addition of Yoda1 was normalized to the signal measured before addition of Yoda1. The normalized increase fluorescence was 2.62±0.42 for healthy and 5.64±0.23 for AD (mean #SEM) (FIG. 3G). […]

Where only a bound is given, the exact number is not on record here.

T1 sequence (Q92508 whole entry): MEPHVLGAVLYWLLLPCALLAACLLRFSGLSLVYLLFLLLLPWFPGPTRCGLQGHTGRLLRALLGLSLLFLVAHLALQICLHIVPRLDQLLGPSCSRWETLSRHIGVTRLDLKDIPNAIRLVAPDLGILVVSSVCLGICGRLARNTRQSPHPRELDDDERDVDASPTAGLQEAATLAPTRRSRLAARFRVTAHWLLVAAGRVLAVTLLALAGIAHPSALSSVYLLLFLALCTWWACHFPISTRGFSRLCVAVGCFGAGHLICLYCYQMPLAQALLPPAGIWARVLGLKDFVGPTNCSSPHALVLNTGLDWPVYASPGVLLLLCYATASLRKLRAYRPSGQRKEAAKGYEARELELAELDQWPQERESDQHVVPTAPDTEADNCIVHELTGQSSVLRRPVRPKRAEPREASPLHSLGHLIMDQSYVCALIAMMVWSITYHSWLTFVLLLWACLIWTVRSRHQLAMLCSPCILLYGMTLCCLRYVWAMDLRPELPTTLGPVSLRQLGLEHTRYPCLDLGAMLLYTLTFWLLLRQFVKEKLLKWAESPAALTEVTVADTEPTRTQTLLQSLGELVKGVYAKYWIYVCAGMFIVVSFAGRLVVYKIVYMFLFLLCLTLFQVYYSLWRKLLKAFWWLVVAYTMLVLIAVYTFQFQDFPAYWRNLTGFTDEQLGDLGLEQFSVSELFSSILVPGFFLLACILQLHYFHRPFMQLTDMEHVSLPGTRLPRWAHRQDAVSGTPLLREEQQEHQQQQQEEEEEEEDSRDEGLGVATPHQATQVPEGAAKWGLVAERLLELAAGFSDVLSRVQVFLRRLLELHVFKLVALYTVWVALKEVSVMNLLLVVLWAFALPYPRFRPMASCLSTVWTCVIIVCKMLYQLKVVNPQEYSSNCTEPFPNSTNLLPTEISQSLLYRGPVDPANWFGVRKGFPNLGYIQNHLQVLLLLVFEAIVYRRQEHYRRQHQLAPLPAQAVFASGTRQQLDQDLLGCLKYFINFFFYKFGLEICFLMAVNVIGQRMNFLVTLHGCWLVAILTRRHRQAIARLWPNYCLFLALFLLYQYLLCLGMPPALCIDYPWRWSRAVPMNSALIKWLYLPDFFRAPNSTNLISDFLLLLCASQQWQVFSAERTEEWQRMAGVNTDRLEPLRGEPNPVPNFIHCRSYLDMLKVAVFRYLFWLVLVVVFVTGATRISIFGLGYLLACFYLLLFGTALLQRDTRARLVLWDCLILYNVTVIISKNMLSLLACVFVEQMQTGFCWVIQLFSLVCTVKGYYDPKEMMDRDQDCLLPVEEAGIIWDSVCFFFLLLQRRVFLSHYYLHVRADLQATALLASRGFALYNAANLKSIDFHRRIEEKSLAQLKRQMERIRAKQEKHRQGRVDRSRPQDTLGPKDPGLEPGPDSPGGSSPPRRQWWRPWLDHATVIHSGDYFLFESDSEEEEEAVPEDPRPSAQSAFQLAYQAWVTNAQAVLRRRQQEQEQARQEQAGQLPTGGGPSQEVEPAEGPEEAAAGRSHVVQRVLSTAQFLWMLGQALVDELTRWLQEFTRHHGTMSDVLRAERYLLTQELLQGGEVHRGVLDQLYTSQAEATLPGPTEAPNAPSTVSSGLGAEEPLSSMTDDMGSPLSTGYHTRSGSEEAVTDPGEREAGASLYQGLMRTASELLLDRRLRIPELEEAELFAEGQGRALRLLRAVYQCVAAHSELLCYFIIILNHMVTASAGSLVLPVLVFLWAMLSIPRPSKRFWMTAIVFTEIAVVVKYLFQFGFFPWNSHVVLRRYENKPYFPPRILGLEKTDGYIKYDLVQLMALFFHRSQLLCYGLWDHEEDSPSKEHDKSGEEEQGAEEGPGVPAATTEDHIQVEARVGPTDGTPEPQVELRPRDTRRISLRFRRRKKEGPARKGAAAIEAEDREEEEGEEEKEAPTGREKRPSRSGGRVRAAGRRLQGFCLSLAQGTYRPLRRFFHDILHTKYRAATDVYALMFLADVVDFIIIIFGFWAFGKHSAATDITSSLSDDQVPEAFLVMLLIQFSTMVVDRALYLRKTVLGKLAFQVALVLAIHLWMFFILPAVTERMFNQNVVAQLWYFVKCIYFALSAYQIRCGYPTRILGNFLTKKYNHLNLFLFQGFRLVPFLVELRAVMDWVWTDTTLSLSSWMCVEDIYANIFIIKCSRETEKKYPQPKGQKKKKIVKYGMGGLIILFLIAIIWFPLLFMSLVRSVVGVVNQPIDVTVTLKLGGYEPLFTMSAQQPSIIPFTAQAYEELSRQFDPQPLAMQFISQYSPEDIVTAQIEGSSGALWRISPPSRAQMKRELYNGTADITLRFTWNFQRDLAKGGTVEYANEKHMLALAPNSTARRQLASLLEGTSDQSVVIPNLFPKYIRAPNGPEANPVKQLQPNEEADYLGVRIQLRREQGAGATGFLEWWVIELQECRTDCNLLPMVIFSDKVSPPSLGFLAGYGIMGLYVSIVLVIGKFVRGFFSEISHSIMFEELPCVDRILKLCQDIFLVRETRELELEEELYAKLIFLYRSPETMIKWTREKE

Turning to `Clc1cccc(Cl)c1CSc1nnc(-c2cnccn2)s1` [Yoda1, 2-[(2,6-Dichlorophenyl)methylsulfanyl]-5-pyrazin-2-yl-1,3,4-thiadiazole], the “normalized MFI levels (Fluo4 am median fluorescence intensity normalized on baseline)” value worked out at 8.57±0.6 in experiment [1] (RBCs of AD patients, n=21, mean±SEM); 7.9±0.48 in experiment [1] (RBCs of MCI patients, n=26, mean±SEM); 5.64±0.27 in experiment [1] (RBCs of control (healthy) subjects, n=23, mean±SEM). Also, the “time at which maximum Fluo4 am MFI levels were reached” value in experiment [1] (10 μM Yoda1 applied at 20 s of recording, levels remained similar till end of 4 min recording) is given as at most 60 s. Moreover, the “normalized increase fluorescence (signal after Yoda1 normalized to signal before addition)” value in experiment [2] (5 μM Yoda1, RBCs of AD patients) is recorded as 5.64±0.23; in experiment [2] (5 μM Yoda1, RBCs of healthy persons), 2.62±0.42.
